Laboratory results published in US7488742B2, “Thrombin receptor antagonists” (Schering Corporation, priority 2000, dated 2009).

Target: T1, thrombin receptor (Homo sapiens, UniProt P25116)
T1 construct: tissue North Jersey Blood Center (East Orange, N.J.); host or cells: platelet membranes from platelet concentrates
T1 sequence (P25116 22-425): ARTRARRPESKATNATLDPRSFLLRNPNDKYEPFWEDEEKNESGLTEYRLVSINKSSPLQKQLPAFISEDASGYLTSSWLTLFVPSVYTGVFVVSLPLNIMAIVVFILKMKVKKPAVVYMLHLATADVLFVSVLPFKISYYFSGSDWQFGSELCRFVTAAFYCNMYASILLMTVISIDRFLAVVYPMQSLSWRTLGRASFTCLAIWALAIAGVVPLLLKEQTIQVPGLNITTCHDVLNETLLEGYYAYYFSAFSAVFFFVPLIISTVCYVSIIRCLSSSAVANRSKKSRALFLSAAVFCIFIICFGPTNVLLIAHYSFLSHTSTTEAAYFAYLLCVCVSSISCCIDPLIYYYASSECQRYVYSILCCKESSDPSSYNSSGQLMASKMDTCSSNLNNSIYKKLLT
Assay: High throughput thrombin receptor radioligand binding assay ([3H]haTRAP, platelet membranes)
Conditions: [3H]haTRAP binding to platelet membranes; read-out: thrombin receptor IC50 (concentration at which a 50% inhibition of thrombin receptor was observed)
Description: In Vitro Testing Procedure for Thrombin Receptor Antagonists:
The vessel was attached to the tritium line, frozen in liquid nitrogen and evacuated. […] At the completion of the reaction, the excess tritium was removed and the reacted peptide solution was diluted with DMF (0.5 ml) and filtered to remove the catalyst. The collected DMF solution of the crude peptide was diluted with water and freeze dried to remove the labile tritium. The solid peptide was redissolved in water and the freeze drying process repeated.
All steps were carried out at 4° C. under approved biohazard safety conditions. Platelets were centrifuged at 100×g for 20 minutes at 4° C. to remove red cells. The supernatants were decanted and centrifuged at 3000×g for 15 minutes to pellet platelets. […] This step was repeated two additional times. […] To complete membrane preparation, aliquots were thawed, pooled, and homogenized with 5 strokes of a Dounce homogenizer. Membranes were pelleted and washed 3 times in 10 mM triethanolamine-HCl, pH 7.4, 5 mM EDTA, and resuspended in 20-25 ml 50 mM Tris-HCl, pH 7.5, 10 mM MgCl2, 1 mM EGTA, and 1% DMSO.
High Throughput Thrombin Receptor Radioligand Binding Assay
Stock solutions (10 mM in 100% DMSO) of test compounds were further diluted in 100% DMSO. Unless otherwise indicated, 10 μl of diluted compound solutions and 90 μl of radioligand (a final concentration of 10 nM in 5% DMSO) were added to each well, and the reaction was started by the addition of 100 μl of membranes (40 μg protein/well). […] Compounds were tested at three concentrations (0.1, 1 and 10 μM).

Compound: CC[C@H]1[C@H](/C=C/c2ccc(-c3ccccc3)cn2)[C@@H]2[C@@H](C)OC(=O)[C@]2(C(N)=O)C[C@@H]1C [Example 17H]
- IC50: 1 to 100 nM

Compound: C[C@H]1[C@H](/C=C/c2ccc(-c3ccccc3C#N)cn2)[C@@H]2[C@@H](C)OC(=O)[C@]2(N)C[C@@H]1C [Example 20H]
- IC50: 1 to 100 nM

Compound: C[C@H]1[C@H](/C=C/c2ccc(-c3cccc(C#N)c3)cn2)[C@@H]2[C@@H](C)OC(=O)[C@]2(N)C[C@@H]1C [Example 20G]
- IC50: 1 to 100 nM

Compound: C[C@H]1[C@H](/C=C/c2ccc(-c3ccccc3)cn2)[C@@H]2[C@@H](C)OC(=O)[C@]2(N)C[C@@H]1C [Example 20E]
- IC50: 1 to 100 nM

Compound: C[C@H]1[C@H](/C=C/c2ccc(-c3cccc(F)c3)cn2)[C@@H]2[C@@H](C)OC(=O)[C@]2(N)C[C@@H]1C [Example 20F]
- IC50: 1 to 100 nM
